Experimental data as given in US6962939B1, “Condensed indoline derivatives and their use as 5HT, in particular 5HT2C, receptor ligands” (Vernalis Research Limited, priority 1999, dated 2005).
Counter-ions that a name gives are not always drawn.

Legend:
h5-HT2A receptor = target: T1, h5-HT2A receptor (Homo sapiens, UniProt P28223); test: Functional activity, FLIPR calcium assay, CHO cells expressing h5-HT2A; type: cell-based; settings: for Emax: CHO, read-out: h5-HT2A Relative Efficacy (%); for EC50: FLIPR, CHO cells, Fluo 3-AM
T1 construct: expressed in transfected cells; host or cells: CHO cells
T1 sequence (P28223 whole entry): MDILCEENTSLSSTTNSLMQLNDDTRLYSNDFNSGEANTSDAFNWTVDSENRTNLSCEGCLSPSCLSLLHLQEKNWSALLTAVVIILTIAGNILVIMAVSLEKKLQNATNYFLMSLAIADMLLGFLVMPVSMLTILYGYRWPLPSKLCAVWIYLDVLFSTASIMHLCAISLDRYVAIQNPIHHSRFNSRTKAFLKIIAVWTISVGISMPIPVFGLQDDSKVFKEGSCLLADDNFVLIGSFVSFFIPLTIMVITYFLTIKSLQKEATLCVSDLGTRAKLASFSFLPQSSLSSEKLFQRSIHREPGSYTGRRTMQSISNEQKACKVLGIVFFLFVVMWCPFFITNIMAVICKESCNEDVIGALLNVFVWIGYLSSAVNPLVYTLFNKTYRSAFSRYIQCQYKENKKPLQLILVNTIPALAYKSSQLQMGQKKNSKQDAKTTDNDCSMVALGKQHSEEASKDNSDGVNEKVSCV
Procedure: (§1) The functional activity of compounds of formula (I) was assayed using a Fluorimetric Imaging Plate reader (FLIPR) in the following manner.
(§2) CHO cells expressing either the h5-HT2C or h5-HT2A receptors were counted and plated into standard 96 well microtitre plates before the day of testing to give a confluent monolayer. The following day the cells were dye loaded with the calcium sensitive dye Fluo 3-AM by incubation with serum free culture maintenance media containing plumnic acid and Fluo 3-AM dissolved in DMSO at 37° C. in a CO2 incubator at 95% humidity for approximately 90 minutes. Unincorporated dye was removed by washing with Hanks balanced salt solution containing 20 mM HEPES and 2.5 mM probenecid (the assay buffer) using an automated cell washer to leave a total volume of 100 μl/well.
(§3) The drug (dissolved in 50 μl of assay buffer) was added at a rate of 70 μL/sec to each well of the FLIPR 96 well plate during fluorescence measurements. The measurements are taken at 1 sec intervals and the maximum fluorescent signal was measured (approx 10–15 secs after drug addition) and compared with the response produced by 10 μM 5-HT (defined as 100%) to which it is expressed as a percentage response (relative efficacy). Dose response curves were constructed using Graphpad Prism (Graph Software Inc.).

h5-HT2C receptor = target: T2, h5-HT2C receptor (Homo sapiens, UniProt P28335); test: Functional activity, FLIPR calcium assay, CHO cells expressing h5-HT2C; type: cell-based; settings: for Emax: CHO, read-out: h5-HT2C Relative Efficacy (%); for EC50: FLIPR, CHO cells, Fluo 3-AM
T2 construct: expressed in transfected cells; host or cells: CHO cells
T2 sequence (P28335 33-458): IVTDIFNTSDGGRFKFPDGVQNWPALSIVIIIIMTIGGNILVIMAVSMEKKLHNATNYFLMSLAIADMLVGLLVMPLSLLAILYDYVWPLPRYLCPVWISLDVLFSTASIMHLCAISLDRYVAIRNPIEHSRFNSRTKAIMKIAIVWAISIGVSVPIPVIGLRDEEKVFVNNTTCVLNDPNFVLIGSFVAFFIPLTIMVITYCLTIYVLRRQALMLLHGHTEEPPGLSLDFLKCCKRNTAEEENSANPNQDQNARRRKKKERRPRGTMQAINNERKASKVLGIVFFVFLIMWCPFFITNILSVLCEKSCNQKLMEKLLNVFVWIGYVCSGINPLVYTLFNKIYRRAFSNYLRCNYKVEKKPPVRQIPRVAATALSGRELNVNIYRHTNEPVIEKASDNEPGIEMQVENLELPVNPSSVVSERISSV
Procedure: as §1, §2, §3

5-HT2C receptor = target: T3, 5-HT2C receptor (Homo sapiens, UniProt P28335); test: Binding to 5-HT2C receptor, [3H]-5-HT, CHO cell line; settings: read-out: Ki (2C)
T3 construct: expressed in transfected cells; host or cells: CHO cell line
T3 sequence (P28335 33-458): T2 sequence (P28335 33-458)
Procedure: (§4) The binding of compounds of formula (1) to serotonin receptors was determined in vitro by standard methods. The preparations were investigated in accordance with the assays given hereinafter.
Method (a): For the binding to the 5-HT2C receptor the 5-HT2C receptors were radiolabeled with [^3H]-5-HT. The affinity of the compounds for 5-HT2C receptors in a CHO cell line was determined according to the procedure of D. Hoyer, G. Engel and H. O. Kalknan, European J. Pharmacol., 1985, 118, 13–23.

human 5-HT2B receptors = target: T4, human 5-HT2B receptors (Homo sapiens, UniProt P41595); test: Binding to 5-HT2B receptor, [3H]-5-HT, CHO cell line; settings: read-out: Ki (2B)
T4 construct: expressed in transfected cells; host or cells: CHO cell line
T4 sequence (P41595 whole entry): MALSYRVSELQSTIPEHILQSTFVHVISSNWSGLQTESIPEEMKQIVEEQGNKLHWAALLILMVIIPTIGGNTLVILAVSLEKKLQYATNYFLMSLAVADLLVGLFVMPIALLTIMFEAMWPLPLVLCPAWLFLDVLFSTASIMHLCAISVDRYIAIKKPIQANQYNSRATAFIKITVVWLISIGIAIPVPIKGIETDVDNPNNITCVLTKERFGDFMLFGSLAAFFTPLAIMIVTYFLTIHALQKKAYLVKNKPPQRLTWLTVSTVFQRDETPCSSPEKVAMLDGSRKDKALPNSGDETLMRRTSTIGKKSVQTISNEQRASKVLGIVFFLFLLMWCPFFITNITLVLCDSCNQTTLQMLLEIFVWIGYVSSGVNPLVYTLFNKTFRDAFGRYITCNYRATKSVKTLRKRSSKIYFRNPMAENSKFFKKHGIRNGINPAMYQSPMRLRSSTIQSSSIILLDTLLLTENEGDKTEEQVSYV
Procedure: as §4
Method (b): For the binding to the 5-HT2B receptor the 5-HT2B receptors were radiolabeled with [3H]-5-HT. The affinity of the compounds for human 5-HT2B receptors in a CHO cell line was determined according to the procedure of K. Schmuck, C. Ullmer, P. Engels and H. Lubbert, FEBS Lett., 1994, 342, 85–90.

5-HT2A receptor = target: T5, 5-HT2A receptor (Homo sapiens, UniProt P28223); test: Binding to 5-HT2A receptor, [125I]-DOI, CHO cell line; settings: read-out: Ki (2A)
T5 construct: expressed in transfected cells; host or cells: CHO cell line
T5 sequence (P28223 whole entry): as the sequence (P28223 whole entry) above
Procedure: as §4
Method (c): For the binding to the 5-HT2A receptor the 5-HT2A receptors were radiolabeled with [^125I]-DOI. The affinity of the compounds for 5-HT2A receptors in a CHO cell line was determined according to the procedure of D. J. McKenna and S. J. Peroutka, J. Neurosci., 1989, 9/10, 3482–90.

[1] = prolonged period (greater than 6 months); cited from earlier work
rats = settings: cited from earlier work
[2] = tested on: obese male and female subjects; settings: subchronic treatment for a 14 day period; cited from earlier work
female volunteers = settings: single injection; cited from earlier work
[3] = maximum fluorescent signal relative to 10 μM 5-HT (defined as 100%)

SMILES	melting point	Emax (h5-HT2A receptor; [3])	EC50 (h5-HT2A receptor)	Emax (h5-HT2C receptor; [3])	EC50 (h5-HT2C receptor)	further results
C[C@H](N)CN1CCc2ccc3c(c21)CCO3 (as salt: fumarate) [Compound 3, (S)-1-(2,3,7,8-Tetrahydrofuro[2,3-g]indol-1-yl)-2-propylamine fumarate]	215.5 to 217 °C (dec.)	–	–	–	–	–
C[C@H](N)CN1CCc2ccc3c(c21)CCCO3 (as salt: fumarate) [Compound 4, (S)-1-(2,3,7,8-Tetrahydro-9H-pyrano[2,3-g]indol-1-yl)-2-propylamine fumarate]	168 to 169 °C	–	–	–	–	–
C[C@H](N)CN1CCc2ccc3c(c21)CCS3 (as salt: fumarate) [Compound 5, (S)-1-(2,3,7,8-Tetrahydrothieno[2,3-g]indol-1-yl)-2-propylamine fumarate]	188 to 189.5 °C (dec.)	–	–	–	–	–
C[C@H](N)CN1CCc2ccc3c(c21)OCCO3 (as salt: fumarate) [Compound 6, (S)-1-(2,3,7,8-Tetrahydro-9H-1,4-dioxino[2,3-g]indol-9-yl)2-propylamine fumarate]	173 to 174 °C (dec.)	–	–	–	–	–
C[C@H](N)CN1CCc2ccc3c(c21)CCCC3 (as salt: fumarate) [Compound 7, (S)-1-(2,3,6,7,8,9-Hexabydro-1H-benz[g]indol-1-yl)]-2-propylamine, fumarate]	178 to 182 °C	–	–	–	–	–
C[C@H](N)CN1CCc2ccc3c(c21)CCC3 (as salt: fumarate) [Compound 8, (S)-1-[1-(1,2,3,6,7,8-Hexabydrocyclopent[g]indolyl)]-2-propylamine fumarate]	182 °C (dec.)	–	–	–	–	–
CCC1CN(CC(C)N)c2c1ccc1c2CCO1 (single isomer, unassigned) [Compound 9, [2S3′(R or S)]-1-(3-Ethyl-2,3,7,8-tetrahydrofuro[2,3-g]indol-1-yl)-2-propylamine fumarate]	–	22%	1140 nM	74%	50 nM	–
CCC1CN(CC(C)N)c2c1ccc1c2CCO1 (single isomer, unassigned) [Compound 10, [2S,3′(S or R)]-1-(3-Ethyl-2,3,7,8-tetrahydrofuro[2,3-g]indol-1-yl)-2-propylamine fumarate]	–	–	403 nM	–	51 nM	h5-HT2A Relative Efficacy (%) (h5-HT2A receptor; [3]): 15%; h5-HT2C Relative Efficacy (%) (h5-HT2C receptor; [3]): 67%
C[C@H](N)CN1CCc2ccc3ccccc3c21 [Compound 1, (S)-1-(Benz[g]indolin-1-yl)-2-propylamine hemi-fumarate]	–	51%	1370 nM	79%	158 nM	Ki (5-HT2C receptor): 107 nM; Ki (human 5-HT2B receptors): 39 nM; Ki (5-HT2A receptor): 173 nM
C[C@@H](N)CN1CCc2ccc3ccccc3c21 [Compound 2, (R)-1-(Benz[g]indolin-1-yl)-2-propylamine hemi-fumarate]	–	–	> 10000 nM	44%	1720 nM	–
C[C@H](N)CN1CCc2ccc3c(c21)CCO3 [Compound 3, (S)-1-(2,3,7,8-Tetrahydrofuro[2,3-g]indol-1-yl)-2-propylamine fumarate]	–	81%	138 nM	94%	6 nM	–
C[C@H](N)CN1CCc2ccc3c(c21)CCCO3 [Compound 4, (S)-1-(2,3,7,8-Tetrahydro-9H-pyrano[2,3-g]indol-1-yl)-2-propylamine fumarate]	–	66%	505 nM	89%	47 nM	–
C[C@H](N)CN1CCc2ccc3c(c21)CCS3 [Compound 5, (S)-1-(2,3,7,8-Tetrahydrothieno[2,3-g]indol-1-yl)-2-propylamine fumarate]	–	77%	48 nM	86%	0.4 nM	–
C[C@H](N)CN1CCc2ccc3c(c21)OCCO3 [Compound 6, (S)-1-(2,3,7,8-Tetrahydro-9H-1,4-dioxino[2,3-g]indol-9-yl)2-propylamine fumarate]	–	71%	312 nM	90%	47 nM	Ki (5-HT2C receptor): 70 nM; Ki (human 5-HT2B receptors): 218 nM; Ki (5-HT2A receptor): 223 nM
C[C@H](N)CN1CCc2ccc3c(c21)CCCC3 [Compound 7, (S)-1-(2,3,6,7,8,9-Hexabydro-1H-benz[g]indol-1-yl)]-2-propylamine, fumarate]	–	14%	1830 nM	68%	440 nM	–
C[C@H](N)CN1CCc2ccc3c(c21)CCC3 [Compound 8, (S)-1-[1-(1,2,3,6,7,8-Hexabydrocyclopent[g]indolyl)]-2-propylamine fumarate]	–	0%	≥ 10000 nM	69%	217 nM	–
CCN[C@@H](C)Cc1cccc(C(F)(F)F)c1 [dexfenfluramine]	–	–	–	–	–	food intake and body weight [1]: decrease food intake and body weight
CCNC(C)Cc1cccc(C(F)(F)F)c1 (stereo not drawn) [fenfluramine]	–	–	–	–	–	food intake and body weight [1]: decrease food intake and body weight
Clc1cccc(N2CCNCC2)c1 [mCPP, m-chlorophenylpiperazine]	–	–	–	–	–	appearance of the behavioural satiety sequence (rats; rat, in vivo): accelerate the appearance of the behavioural satiety sequence; food intake in rats (rats; rats): reduce food intake; appetite and body weight of obese subjects [2]: decreased the appetite and body weight; food intake in female volunteers (female volunteers): decreased food intake
